Measurements from ChEMBL document CHEMBL2434841, “Computational neural network analysis of the affinity of 2-pyridyl-3,5-diaryl pyrroles analogs for the human glucagon receptor using density functional theory” (Med Chem Res, 2013).

Biological target: Glucagon receptor (Homo sapiens, UniProt P47871)
Assay: Antagonist activity at human glucagon receptor

Chain of Glucagon receptor (P47871 whole entry): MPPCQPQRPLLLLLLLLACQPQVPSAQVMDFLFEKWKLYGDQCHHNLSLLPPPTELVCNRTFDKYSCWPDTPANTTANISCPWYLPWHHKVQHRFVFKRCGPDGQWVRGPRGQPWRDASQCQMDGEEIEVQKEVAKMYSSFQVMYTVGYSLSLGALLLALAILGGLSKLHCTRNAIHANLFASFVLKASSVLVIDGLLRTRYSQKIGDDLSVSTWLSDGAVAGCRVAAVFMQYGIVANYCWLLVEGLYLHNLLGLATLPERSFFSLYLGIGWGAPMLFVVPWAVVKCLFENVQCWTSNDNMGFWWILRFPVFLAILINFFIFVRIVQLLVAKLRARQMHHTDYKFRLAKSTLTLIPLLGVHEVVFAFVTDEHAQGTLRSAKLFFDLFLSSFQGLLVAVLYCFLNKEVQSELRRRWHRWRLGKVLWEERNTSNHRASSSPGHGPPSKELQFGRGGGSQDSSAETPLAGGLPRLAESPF

Structure (SMILES)	IC50 [nM]
C=CCOc1ccccc1-c1cc(-c2ccc(Cl)cc2)[nH]c1-c1ccncc1	4740
Nc1ccc(-c2cc(-c3ccc(F)cc3)c(-c3ccncc3)[nH]2)cc1	190
CCc1ccc(-c2cc(-c3ccc(F)cc3)c(-c3ccncc3)[nH]2)cc1	1360
Cc1ccc(-c2cc(-c3ccc(F)cc3)c(-c3ccncc3)[nH]2)cc1	1690
Fc1ccc(-c2cc[nH]c2-c2ccncc2)cc1	160
COc1ccccc1-c1cc(-c2ccc(Cl)cc2)[nH]c1-c1ccncc1	2650
Clc1ccc(-c2cc(-c3ccc(Cl)cc3)c(-c3ccncc3)[nH]2)cc1	160
O=[N+]([O-])c1ccc(-c2cc(-c3ccc(F)cc3)c(-c3ccncc3)[nH]2)cc1	50
Clc1ccc(-c2cc(-c3ccccc3)c(-c3ccncc3)[nH]2)cc1	210
Cc1cc(-c2ccc(F)cc2)c(-c2ccncc2)[nH]1	321
Fc1ccc(-c2cc(-c3ccc(Cl)cc3Cl)[nH]c2-c2ccncc2)cc1	421
C[S+]([O-])c1ccc(C2=NC(c3ccncc3)=C(c3ccc(F)cc3)C2)cc1 (stereo not drawn)	671
Fc1ccc(-c2cc(-c3ccc(Cl)cc3)[nH]c2-c2ccncc2)cc1	1400
Fc1ccc(-c2cc(C3CCCCC3)[nH]c2-c2ccncc2)cc1	180
O=C(O)c1ccc(-c2cc(-c3ccc(F)cc3)c(-c3ccncc3)[nH]2)cc1	90.2
Clc1ccc(-c2cc(-c3ccccc3Br)c(-c3ccncc3)[nH]2)cc1	1000
C[S+]([O-])c1ccc(-c2cc(-c3ccncc3)c(-c3ccc(F)cc3)[nH]2)cc1 (stereo not drawn)	5.31
CSc1ccc(-c2cc(-c3ccncc3)c(-c3ccc(F)cc3)[nH]2)cc1	44.1

Continued, values first:

IC50 [nM]	Structure (SMILES)
1150	COc1ccc(-c2cc(-c3ccc(Cl)cc3)[nH]c2-c2ccncc2)cc1
2840	CCCOc1ccccc1-c1cc(-c2ccc(Cl)cc2)[nH]c1-c1ccncc1
340	Fc1ccc(-c2cc(-c3ccc(F)cc3)c(-c3ccncc3)[nH]2)cc1
421	COc1cccc(-c2cc(-c3ccc(Cl)cc3)[nH]c2-c2ccncc2)c1
802	Fc1ccc(-c2cc(-c3ccccc3)[nH]c2-c2ccncc2)cc1
50	N#Cc1ccc(-c2cc(-c3ccc(F)cc3)c(-c3ccncc3)[nH]2)cc1
301	Clc1ccc(-c2cc(-c3ccc(Br)cc3)c(-c3ccncc3)[nH]2)cc1
421	Fc1ccc(-c2cc(-c3cccc(Cl)c3)[nH]c2-c2ccncc2)cc1
2810	COc1ccc(-c2cc(-c3ccc(F)cc3)c(-c3ccncc3)[nH]2)cc1
260	CCOC(=O)c1ccc(-c2cc(-c3ccc(F)cc3)c(-c3ccncc3)[nH]2)cc1
1230	CSc1ccc(C2=NC(c3ccncc3)=C(c3ccc(F)cc3)C2)cc1
14200	CCOc1ccccc1-c1cc(-c2ccc(Cl)cc2)[nH]c1-c1ccncc1
3770	CC(C)COc1ccccc1-c1cc(-c2ccc(Cl)cc2)[nH]c1-c1ccncc1
80.2	Clc1ccc(-c2cc(-c3cccc(Br)c3)c(-c3ccncc3)[nH]2)cc1
1440	CCCOc1ccc(Br)cc1-c1cc(-c2ccc(Cl)cc2)[nH]c1-c1ccncc1
